Assays:
[1] = Hay 1982; roll-on solution, distilled water; concentrations above 2%; cited from earlier work
excessive sweating = settings: patient 3: topical application (1% pads and 1% spray)
[2] = test system: hyperhidrosis and gustatory sweating; settings: cited from earlier work

C[N+]1(C)CCC(OC(=O)C(O)(c2ccccc2)C2CCCC2)C1 (stereo not shown) [glycopyrrolate]
crystallisation from solution [1]: Glycopyrrolate crystalized out | side effects (excessive sweating): not experienced any side effects | efficacy of topical concentration ([2]; 0.1% concentration, Hays 1978): ineffective | efficacy of solution versus cream ([2]; Hay 1982, 2 & 4% HEB cream base): Solution worked better than | relief of sweating ([2]; May 1989, 0.5 & 2.0% roll-on, 2.0% cream, almost all patients): total or partial relief. Placebo | efficacy ([2]; Seukeran 1998, 0.50% aqueous solution): Worked well | concentration after which mild side effects begin to present themselves ([2]; topical, Hays 1978): > 4%

— patent US9034368B2 (PUREPHARM INC., priority 2002, dated 2015)
